Data taken from ChEMBL document CHEMBL2157954.
Calls of active or inactive are those of the source. The calls are words filed in the database; no cut-off is given here.

Key:
Rattus norvegicus [1] = assay: […] activity in rat with several spinal cord injury assessed as increase in voiding function at 20 mg/kg/day for 7 days; assay type: functional, organism-based
Rattus norvegicus [2] = assay: […] activity in rat with several spinal cord injury assessed as increase in locomotory function at 20 mg/kg/day for 7 days; assay type: functional, organism-based
Lymphocyte = assay: Immunosuppressive activity against autoimmune lymphocytes assessed as inhibition of cell expansion; assay type: functional, cell-based
Rattus norvegicus [3] = organism: Rattus norvegicus; assay: […] activity in rat with several spinal cord injury assessed as increase in voiding function; assay type: functional, organism-based
Rattus norvegicus [4] = organism: Rattus norvegicus; assay: […] activity in rat with several spinal cord injury assessed as increase in locomotory function; assay type: functional, organism-based

SMILES | Activity (Rattus norvegicus [1]) | Activity (Rattus norvegicus [2]) | inhibition (Lymphocyte) | Activity (Rattus norvegicus [3]) | Activity (Rattus norvegicus [4])
Cc1oncc1C(=O)Nc1ccc(C(F)(F)F)cc1 | Active | Active | Active |  | 
Cc1cc(NC(=O)/C(C#N)=C(\O)C2CC2)ccc1C(F)(F)F |  |  |  | Active | Active
C/C(O)=C(\C#N)C(=O)Nc1ccc(C(F)(F)F)cc1 |  |  |  | Active | Active
